# Results reported in publication PMC9710775, “Bitter taste sensitivity in domestic dogs (Canis familiaris) and its relevance to bitter deterrents of ingestion” (PLOS ONE, 2022).
# Like-named read-outs stand apart in the source and are kept apart here.
# Columns and labels:
# Test in all cases: calcium imaging (Cal520-AM), HEK293T cells
# Format in all cases: cell-based
# dTas2r1 = target: T1, dTas2r1 (Canis lupus, UniProt Q2ABE0); conditions: agonist; Galpha16i/o44 cells; lowest concentration differing from mock cells; EC50 not determined
# T1 construct: gene TAS2R1; HEK293T-PEAKrapid cells with Galpha16i/o44; gene on dog chromosome 34
# T1 sequence (Q2ABE0 1-297): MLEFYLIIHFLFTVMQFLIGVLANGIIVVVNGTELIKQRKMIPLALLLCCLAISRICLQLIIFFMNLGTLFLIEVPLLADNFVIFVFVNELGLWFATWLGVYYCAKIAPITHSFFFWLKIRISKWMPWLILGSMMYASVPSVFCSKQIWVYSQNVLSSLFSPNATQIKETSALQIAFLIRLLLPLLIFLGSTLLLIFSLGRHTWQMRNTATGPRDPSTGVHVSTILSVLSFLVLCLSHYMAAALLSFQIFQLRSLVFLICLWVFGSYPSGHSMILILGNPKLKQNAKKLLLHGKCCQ
# From the text: calcium imaging (Cal520-AM), HEK293T cells on dTas2r1
# dTas2r4 = target: T2, dTas2r4 (Canis lupus, UniProt A0A8I3SCV7)
# T2 construct: gene TAS2R4; HEK293T-PEAKrapid cells with Galpha16i/o44
# T2 sequence (A0A8I3SCV7 1-299): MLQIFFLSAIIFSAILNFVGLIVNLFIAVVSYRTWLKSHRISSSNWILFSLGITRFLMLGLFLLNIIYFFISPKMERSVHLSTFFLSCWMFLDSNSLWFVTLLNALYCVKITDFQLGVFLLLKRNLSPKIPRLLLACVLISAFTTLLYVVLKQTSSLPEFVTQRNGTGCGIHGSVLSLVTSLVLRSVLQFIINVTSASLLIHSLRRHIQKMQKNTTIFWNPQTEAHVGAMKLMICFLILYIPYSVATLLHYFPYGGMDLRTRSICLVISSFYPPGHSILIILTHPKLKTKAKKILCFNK
# From the text: calcium imaging (Cal520-AM), HEK293T cells on dTas2r4
# dTas2r10 = target: T3, dTas2r10 (Canis lupus, UniProt Q2ABD4)
# T3 construct: gene TAS2R10; HEK293T-PEAKrapid cells with Galpha16i/o44
# T3 sequence (Q2ABD4 1-322): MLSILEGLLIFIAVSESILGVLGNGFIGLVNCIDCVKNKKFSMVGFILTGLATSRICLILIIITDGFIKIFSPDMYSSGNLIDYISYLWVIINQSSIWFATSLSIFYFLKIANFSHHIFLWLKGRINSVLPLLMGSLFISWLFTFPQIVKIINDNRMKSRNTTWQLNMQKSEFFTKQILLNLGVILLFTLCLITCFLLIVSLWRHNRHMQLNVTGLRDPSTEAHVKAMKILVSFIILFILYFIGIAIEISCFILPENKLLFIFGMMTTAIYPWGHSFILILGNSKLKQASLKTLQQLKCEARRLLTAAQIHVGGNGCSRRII
# From the text: calcium imaging (Cal520-AM), HEK293T cells on dTas2r10
# dTas2r5 = target: T4, dTas2r5 (Canis lupus, UniProt Q2ABD6)
# T4 construct: gene TAS2R5; HEK293T-PEAKrapid cells with Galpha16i/o44
# T4 sequence (Q2ABD6 1-295): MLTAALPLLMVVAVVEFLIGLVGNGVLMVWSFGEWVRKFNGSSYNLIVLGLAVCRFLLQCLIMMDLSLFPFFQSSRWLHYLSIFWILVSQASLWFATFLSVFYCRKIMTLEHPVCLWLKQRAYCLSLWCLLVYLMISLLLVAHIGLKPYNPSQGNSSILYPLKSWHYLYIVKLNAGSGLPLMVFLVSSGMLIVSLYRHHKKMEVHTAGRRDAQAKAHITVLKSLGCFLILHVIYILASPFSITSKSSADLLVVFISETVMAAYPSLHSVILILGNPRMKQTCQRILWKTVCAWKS
# From the text: calcium imaging (Cal520-AM), HEK293T cells on dTas2r5
# dTas2r41 = target: T5, dTas2r41 (Canis lupus, UniProt A0A8I3NKU5); conditions: agonist; Galpha16i/o44 cells; lowest concentration differing from mock cells; EC50 not determined
# T5 construct: gene TAS2R41; HEK293T-PEAKrapid cells with Galpha16i/o44
# T5 sequence (A0A8I3NKU5 1-308): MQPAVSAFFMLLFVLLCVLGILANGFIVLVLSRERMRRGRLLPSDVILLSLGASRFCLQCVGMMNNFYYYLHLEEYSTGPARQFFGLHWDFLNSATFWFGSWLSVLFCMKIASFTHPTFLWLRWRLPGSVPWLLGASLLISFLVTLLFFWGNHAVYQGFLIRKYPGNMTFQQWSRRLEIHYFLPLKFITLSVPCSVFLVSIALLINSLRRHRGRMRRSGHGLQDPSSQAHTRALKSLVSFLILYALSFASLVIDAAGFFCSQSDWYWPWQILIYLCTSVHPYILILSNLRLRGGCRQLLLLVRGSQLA
# From the text: calcium imaging (Cal520-AM), HEK293T cells on dTas2r41
smiles,measurement,setting,value
O=c1cc(-c2ccccc2)oc2ccccc12 [Flavone],dTas2r1,dTas2r1,0.00082 mM
CC[N+](CC)(CC(=O)Nc1c(C)cccc1C)Cc1ccccc1 [Denatonium benzoate],EC50,dTas2r4; read-out: dTas2r4,4350 µM
CC(=O)OC(C)(C)/C=C/C(=O)[C@](C)(O)[C@H]1[C@H](O)C[C@@]2(C)[C@@H]3CC=C4[C@@H](C[C@H](O)C(=O)C4(C)C)[C@]3(C)C(=O)C[C@]12C [Cucurbitacin B],EC50,dTas2r10,2.4 µM
COc1cccc2c1cc([N+](=O)[O-])c1c(C(=O)O)cc3c(c12)OCO3 [Aristolochic acid I],EC50,dTas2r4,190 µM
O=C1NS(=O)(=O)c2cc([N+](=O)[O-])ccc21 [6-Nitrosaccharin],EC50,dTas2r4; read-out: dTas2r4,1120 µM
same,dTas2r1,dTas2r1,0.041 mM
OC[C@H]1O[C@H](O[C@]2(CCl)O[C@H](CCl)[C@@H](O)[C@@H]2O)[C@H](O)[C@@H](O)[C@H]1Cl [Sucralose],EC50,dTas2r5,42900 µM
CC[N+](C)(CC)CCOC(=O)C(O)(c1ccccc1)C1CCCCC1 (stereo not drawn) [Oxyphenonium bromide],dTas2r41,dTas2r41,11.11 mM
same,EC50,dTas2r4; read-out: dTas2r4,4760 µM
